# Results taken from the METLIN SMRT retention time set (Domingo-Almenara et al. 2019).
# Assay: gradient 5% acetonitrile 3 min, to 50% in 2 min, to 85% in 15 min, held 3 min, 100 µL/min
# Conditions: column: Zorbax Extend-C18 2.1 x 50 mm; eluents: water / acetonitrile, 0.1% formic acid
# In short: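 Each retention time is based on an adduct peak selected computationally and verified by manual inspection. Measurements used HPLC–quadrupole time-of-flight mass spectrometry in positive and negative ionization mode on mixtures of ~100 pure standards. Chromatography ran on a Zorbax Extend-C18 column (2.1 × 50 mm, 1.8 μm) at 100 μL/min with water and acetonitrile, each containing 0.1% formic acid, and dead and dwell volumes of 40 μL and 900 μL.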
row,RP-LC retention time [s],Structure (SMILES)
1,870,CCc1cccc(NC(=O)C2CCCN(S(=O)(=O)c3cc(-c4noc(C)n4)cs3)C2)c1 (configuration not stated)
2,887,NC(=NC1C2CC3CC(C2)CC1C3)Nc1ccc(I)cc1 (configuration not stated)
3,775,CCCN1C(=O)c2ccccc2Sc2cc(-c3noc(CNC(C)=O)n3)ccc21
4,767,Cc1cc(C(=O)Nc2nnc(SCC(=O)Nc3ccccc3C(F)(F)F)s2)no1
5,1010,CCc1nc(-c2cccc(-c3noc(CNC(=O)c4ccccc4)n3)c2)cs1
6,798,COc1cccc(-c2cc(C(=O)N3CC(c4nc(-c5cccs5)no4)C3)[nH]n2)c1
7,643,CNC(=O)c1cc(-c2ccccc2)n[nH]1
8,640,COCCN1C(=O)c2ccccc2C(C(=O)NCCCN2CCC(C)CC2)C1c1cccs1 (configuration not stated)
9,994,Fc1ccc(Cn2cc(-c3noc(-c4ccccc4)n3)nn2)cc1
10,744,O=C(Nc1c(C(=O)N2CCN(c3ccccn3)CC2)oc2ccccc12)c1cccc([N+](=O)[O-])c1
11,959,Cc1ccnc(SCC(=O)Nc2nc(-c3ccccc3)c(-c3ccccc3)o2)n1
12,1040,CCOc1ccc(-c2ccc(=O)n(Cc3nc(-c4ccccc4)no3)n2)cc1
13,824,CCn1ccc2c(cc(C(=O)Nc3ccc(C)c(C)c3)n2C)c1=O
14,994,CCc1ccc(S(=O)(=O)NCCc2csc3nc(-c4cccc(F)c4)nn23)s1
15,847,CC(C)c1cc(C2CCCN2C(=O)c2ccccc2)no1 (configuration not stated)
16,1030,Cc1sc(-c2cc(C(F)(F)F)[nH]n2)cc1S(=O)(=O)NC1CCCCC1
17,686,CCNC(=O)C1CCN(C(=O)Nc2ccc(NC(=O)Nc3ccccc3F)cc2)CC1
18,875,CCOc1ccccc1NC(=O)N1CCN(c2ccc(=O)n(-c3ccc(F)cc3)n2)CC1

row,RP-LC retention time [s],Structure (SMILES)
1,816,Cn1c(=O)c(N2CCC(NC(=O)NCc3cccc(F)c3)CC2)nc2ccccc21
2,547,OC[C@@H]1CN(Cc2ccco2)C[C@H]1c1nc(-c2ccncc2)no1
3,719,O=C(NCC1CC1)C1CC(=O)N(c2ccc3c(c2)CCN3C(=O)C2CCC2)C1 (configuration not stated)
4,754,COc1ccc(C(=O)N2CCC3(CC2)NC(=O)c2cc(C)ccc2N3C)c(OC)c1
5,622,Cc1ccc(-c2nc3cnccn3c2NCCC(=O)N(C)C)cc1
6,729,O=C(NCc1csc(C2CCN(C(=O)c3ccc(F)cc3F)CC2)n1)C1CCC1
7,560,CCC(C(=O)NCCCN1CCN(C)CC1)n1c2ccccc2c2cnn(C)c(=O)c21 (configuration not stated)
8,822,Cc1csc(-c2ccc(N3CCN(C(=O)c4cccc(F)c4)CC3)nc2)n1
9,1020,c1ccc(-c2nc(-c3cn(-c4ccccc4)nn3)no2)cc1
10,579,CC(=O)Nc1ccc2c(c1)nc(CN1CCOCC1)n2C(C)C
11,943,Cc1ccc(NS(=O)(=O)c2cc3c(s2)CCN(C(=O)C2CCC2)C3)c(C)c1
12,562,O=C(NCCN1CCCCC1)C1CCCN(c2cnc3nccnc3c2)C1 (configuration not stated)
13,1260,c1ccc(-c2nnc3nc(N4CCCCC4)nc(N4CCCCC4)n23)cc1
14,730,CCc1ccccc1NC(=O)N1CCC(N2CCN(Cc3ccccc3)C(=O)C2=O)CC1
15,978,COc1ccc(Nc2cc(Cl)ccc2C(=O)O)cn1
16,669,Cc1cc(C)cc(NC(=O)Cc2nc(-c3ccccn3)n[nH]2)c1
17,568,Cc1nccn1C1CN(C(=O)Nc2ccccc2)C1
18,1100,Cc1ccc(-c2nnc(Cc3nc(-c4ccc(F)cc4)no3)o2)cc1F

row,Structure (SMILES),RP-LC retention time [s]
1,O=C(NCC1CC1)c1c(O)c2cccnc2n(Cc2ccccc2)c1=O,1310
